Experimental data reported in ChEMBL document CHEMBL1201862, “PubChem BioAssay data set” (2004).
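Growth conditions: 96-well plates. Treatment: test compound, 48 hours, 5 concentrations. Analysis: linear interpolation between bracketing concentrations; unreached endpoints set to highest concentration. GI50: concentration for 50% inhibition of growth.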 Calls of active or inactive are those of the source. No stated cut-off is given here; in the data, active = GI50 up to about 1.1 µM and inactive = higher. Where a SMILES comes first, the peptide text is derived from it. The star is where a group is joined. Boc = CC(C)(C)OC(=O)*

Tests used:
Assay in all cases: NCI tumour cell line growth inhibition, 48 h
[1] = tested on: UACC-62
[2] = tested on: SF-268
[3] = tested on: Malme-3M
[4] = tested on: TK-10
[5] = tested on: SNB-19
[6] = tested on: COLO 205
[7] = tested on: EKVX
[8] = tested on: DU-145
[9] = tested on: NCI-H23
[10] = tested on: K562
[11] = tested on: ACHN
[12] = tested on: RPMI-8226
[13] = tested on: UACC-257
[14] = tested on: NCI-H460
[15] = tested on: SN12C
[16] = tested on: RXF 393
[17] = tested on: Hs-578T
[18] = tested on: HT-29
[19] = tested on: SK-MEL-2
[20] = tested on: SR

Measured: GI50

O=c1c2nn[nH]c2nc2n1CC(c1ccccc1)S2 (stereo unspecified)
inactive: [1] > 100 µM | [2] > 100 µM | [3] > 100 µM | [4] > 100 µM | [5] > 100 µM | [6] > 100 µM | [7] > 100 µM | [8] > 100 µM | [9] > 100 µM | [10] > 100 µM | [11] > 100 µM | [12] > 100 µM | [13] > 100 µM | [14] > 100 µM | [15] > 100 µM | [16] 29 µM

C/C(Cc1ccc2c(c1)OCO2)=N\NC(=O)C(C)Sc1nnc(SC(C)C(=O)N/N=C(\C)Cc2ccc3c(c2)OCO3)s1 (stereo unspecified)
inactive: [1] > 100 µM | [17] > 100 µM | [2] > 100 µM | [3] > 100 µM | [4] > 100 µM | [5] > 100 µM | [18] > 100 µM | [6] > 100 µM | [7] 81.3 µM | [8] > 100 µM | [9] > 100 µM | [10] 32.1 µM | [11] > 100 µM | [12] 37.6 µM | [19] > 100 µM | [13] > 100 µM | [14] > 100 µM | [16] > 100 µM

CC1=NC2=Nc3nc(C)cc[n+]3CN2C=C1
inactive: [1] 44.2 µM | [17] > 100 µM | [2] > 100 µM | [3] 49.5 µM | [4] 88.3 µM | [5] > 100 µM | [18] 31.8 µM | [6] 67.5 µM | [7] 30.7 µM | [8] > 100 µM | [9] > 100 µM | [11] > 100 µM | [12] 19.1 µM | [19] > 100 µM | [13] > 100 µM | [14] 43.2 µM | [15] 92.5 µM | [16] > 100 µM

Cc1cn(C2CC(n3cc(Cn4cc(Br)c(=O)[nH]c4=O)nn3)C(CO)O2)c(=O)[nH]c1=O (stereo unspecified)
inactive: [1] > 100 µM | [17] > 100 µM | [2] > 100 µM | [3] > 100 µM | [4] > 100 µM | [5] 37.8 µM | [6] > 100 µM | [7] > 100 µM | [8] > 100 µM | [9] > 100 µM | [11] > 100 µM | [12] 52.6 µM | [19] > 100 µM | [13] > 100 µM | [15] > 100 µM | [16] > 100 µM

COc1ccccc1/C=C1\SC(=S)N(/C=C2\C(=O)Oc3ccccc3C2=O)C1=O
inactive: [1] 23.8 µM | [17] 33.5 µM | [2] 33.3 µM | [3] 23.2 µM | [4] 28.1 µM | [5] 32.7 µM | [18] 38.7 µM | [6] 24 µM | [7] 24.1 µM | [8] 33.3 µM | [9] 1.62 µM | [10] 36.6 µM | [11] 47.5 µM | [19] 21.9 µM | [13] 22.9 µM

CC(C)(SCc1ccccc1)C(N)C(=O)O (stereo unspecified)
inactive: [1] > 100 µM | [2] > 100 µM | [3] > 100 µM | [20] > 100 µM | [4] > 100 µM | [5] > 100 µM | [18] > 100 µM | [7] > 100 µM | [8] > 100 µM | [9] > 100 µM | [10] > 100 µM | [11] > 100 µM | [12] > 100 µM | [19] > 100 µM | [13] > 100 µM | [14] > 100 µM | [15] > 100 µM | [16] > 100 µM

Cc1ccc(Oc2cc(C)ccc2P(=O)(O)O)cc1
inactive: [1] > 100 µM | [17] > 100 µM | [2] > 100 µM | [4] > 100 µM | [5] > 100 µM | [6] > 100 µM | [7] > 100 µM | [8] > 100 µM | [9] > 100 µM | [10] > 100 µM | [12] > 100 µM | [19] > 100 µM | [13] > 100 µM | [15] > 100 µM | [16] > 100 µM

CC(=O)OC1CCC2C3CCc4c(C)ccc(OS(=O)(=O)c5ccccc5)c4C3CCC12C (stereo unspecified)
inactive: [1] 26.2 µM | [2] > 100 µM | [3] 50.4 µM | [20] 6.82 µM | [4] 52.1 µM | [5] 47.1 µM | [18] 13.1 µM | [6] 18.6 µM | [7] 46.9 µM | [8] 33.1 µM | [9] 16.3 µM | [10] 5.69 µM | [11] 35.9 µM | [12] 21.7 µM | [19] 30.8 µM | [13] 73.3 µM | [14] 6.61 µM | [15] > 100 µM | [16] 31.1 µM

COC(=O)C(Cc1c[nH]c2ccccc12)NC(=O)C(Cc1c[nH]c2ccccc12)NC(=O)C(Cc1c[nH]c2ccccc12)NC(=O)OC(C)(C)C (stereo not drawn) (Boc-Trp-Trp-Trp-OMe; configuration not given here)
inactive: [1] 18.8 µM | [17] 17.7 µM | [3] > 100 µM | [4] 25.5 µM | [5] 18.9 µM | [18] 19.2 µM | [6] 20.4 µM | [7] 57 µM | [9] 16.2 µM | [10] 27 µM | [11] 18.1 µM | [12] 27.2 µM | [19] 17.3 µM | [13] 32.7 µM | [14] 20.2 µM | [15] 18.9 µM | [16] 8.93 µM

Oc1ccc(Cl)cc1-c1cc(-c2ccccc2)nc(S)n1
inactive: [17] 29.2 µM | [2] 27.3 µM | [3] > 100 µM | [4] 30.5 µM | [5] 42.9 µM | [18] > 100 µM | [6] > 100 µM | [7] 4.52 µM | [8] > 100 µM | [9] 88.5 µM | [10] > 100 µM | [11] 30.3 µM | [12] > 100 µM | [19] 27.2 µM | [13] > 100 µM | [14] > 100 µM | [15] 93.1 µM | [16] 71.3 µM

CC(C)(C)[Si](C)(C)OCC1OC(n2ccc(=O)[nH]c2=O)C(O[Si](C)(C)C(C)(C)C)/C1=N/O (stereo unspecified)
inactive: [1] 5.96 µM | [20] 2.71 µM | [4] 6.68 µM | [5] 4.49 µM | [18] 2.84 µM | [6] 2.42 µM | [7] 4.13 µM | [8] 9.29 µM | [9] 3.44 µM | [10] 2.77 µM | [11] 3.2 µM | [12] 2.73 µM | [19] 3.21 µM | [13] 4.17 µM | [14] 3.44 µM | [15] 3.3 µM | [16] 8.39 µM

CCNc1cc2oc(=O)cc(C(F)(F)F)c2cc1C
inactive: [1] > 100 µM | [17] > 100 µM | [2] > 100 µM | [4] > 100 µM | [5] > 100 µM | [18] > 100 µM | [6] > 100 µM | [7] 31.3 µM | [8] > 100 µM | [9] > 100 µM | [10] > 100 µM | [11] > 100 µM | [12] > 100 µM | [19] > 100 µM | [13] > 100 µM | [14] > 100 µM | [15] > 100 µM | [16] > 100 µM

COC(=O)C(=O)C(C(=O)C(=O)Nc1nc2ccc(C)cc2s1)c1nc2ccc([N+](=O)[O-])cc2nc1O (stereo unspecified)
inactive: [1] > 100 µM | [17] 93.1 µM | [2] > 100 µM | [3] > 100 µM | [20] > 100 µM | [4] > 100 µM | [5] 72.6 µM | [18] > 100 µM | [7] 68.4 µM | [9] > 100 µM | [10] > 100 µM | [11] > 100 µM | [12] > 100 µM | [19] > 100 µM | [13] > 100 µM | [14] > 100 µM | [15] > 100 µM | [16] > 100 µM

COc1nc2ccc(COc3ccc(C(=O)O)cc3)cc2nc1OC
inactive: [1] 33.6 µM | [2] 82 µM | [3] > 100 µM | [20] 41.4 µM | [5] > 100 µM | [18] > 100 µM | [6] > 100 µM | [7] > 100 µM | [8] > 100 µM | [9] > 100 µM | [10] 67.1 µM | [11] 80.4 µM | [19] > 100 µM | [13] > 100 µM | [14] > 100 µM | [15] > 100 µM

COC(=O)CCC(NC(=O)C(C)NC(=O)COC1C(O)C(OC(=O)CCNc2c3ccccc3nc3cccc([N+](=O)[O-])c23)OC(OCc2ccccc2)C1NC(C)=O)C(N)=O (stereo unspecified)
inactive: [1] 3.08 µM | [17] > 10 µM | [2] 7.26 µM | [3] 2.22 µM | [4] > 10 µM | [5] 5.36 µM | [18] 2.62 µM | [7] > 10 µM | [8] 2.6 µM | [9] > 10 µM | [10] 1.91 µM | [11] 3.61 µM | [19] 1.93 µM | [13] > 10 µM | [14] > 10 µM | [15] 4.2 µM | [16] 3.05 µM
